Patent US20180014536A1, “AGENT FOR IMPROVING PLANT GROWTH AND METHOD FOR PRODUCING PLANT USING SAME” (FUSO CHEMICAL CO., LTD., priority 2015, published 2018)
“And” between values parts separate entries of the source, which are not always exact repeats. Identical values can stand only once. “Also recorded” adds a separate entry of the source.

Tests used:
Type in all cases: in vivo
cucumber [1] = assay: Verification experiment 12: salt stress, TTC test; conditions: cut leaves immersed in 1.0% saline water for 24 hours
cucumber [2] = assay: Verification experiment 6: dry stress; conditions: for Weight of each seedling: 3 ml agent added immediately after germination, 18 days cultivation, soil surface kept dry, samples No. 1-9; for Average: average seedling weight after 18 days dry stress; for Weight comparison (%): control = 100.0
Experimental: By use of cucumber, a resistance to dry stress was investigated. 3 ml of Zerumbone was added to cucumber seedlings immediately after germination. The cucumber seedlings were cultivated for 18 days. Meanwhile, another cucumber seedlings were cultivated for 18 days without Zerumbone added thereto. Throughout the cultivation period, a minimum amount of water was given and watering was conducted a minimum number of times so that the soil surface was always kept dry. […] A weight of each of the seedlings was measured. […] Note that, except for the agent, the cultivation conditions used were identical to those of the case where zerumbone was used.

cucumber [3] = assay: Verification experiment 10: ammonia stress, TTC test; conditions: cut leaves immersed in 1.0% ammonia solution for three hours
leaf lettuce = assay: Verification experiment 13: hydroponics test on leaf lettuce in vinyl greenhouse in summer
cucumber [4] = assay: Verification experiment 9: organic acid stress, TTC test; conditions: cut leaves immersed in 0.4% acetic acid solution for two hours
racomitrium moss [5] = assay: Verification experiment 17: high temperature stress, Bryophyta, TTC test; conditions: samples immersed in tap water of 45° C. for 18 hours
Experimental: As a Bryophyta, racomitrium moss was used, which is a Bryophyta widely used for greening a park, a rooftop, and a garden. Verification experiments for various stresses were conducted thereon. The experiments were conducted in the following procedures. […] Meanwhile, the control sample was sprayed only with water. After the spraying, the racomitrium mosses were cultivated at 25° C. for one day. Then, the samples were subjected to various stresses. Thus, cell activities of the samples were determined by TTC test. […] On such samples, TTC test was conducted.

racomitrium moss [6] = assay: Verification experiment 19: ammonia stress, Bryophyta, TTC test; conditions: samples immersed in 1.0% ammonia solution for 48 hours
racomitrium moss [7] = assay: Verification experiment 18: organic acid stress, Bryophyta, TTC test; conditions: samples immersed in 0.4% acetic acid solution for three hours
Japanese mustard spinach = assay: Verification experiment 1: high temperature stress, hydroponics (first time); conditions: high temperature stress, hydroponics
Experimental: In order to confirm that the above substances have an efficacy such as alleviation of the various stresses on a plant or promotion of plant growth, some verification experiments were conducted. In each of the verification experiments, solutions of the above substances were used. A concentration thereof was in a range from 0.01 ppm to 10 ppm, in order to exert a sufficient efficacy on a plant. This concentration was appropriately adjusted for each verification experiment. For comparison, similar verification experiments using sanguinarine were conducted. In such a verification experiment for an identical purpose to the above, a concentration of sanguinarine was set to be identical to those of the above substances. A verification experiment for high temperature stress was conducted by use of Japanese mustard spinach. The experiment was conducted in the following procedures. […] Note that the agent used was zerumbone.

cucumber [8] = assay: Verification experiment 8: low temperature stress, TTC test; conditions: for TTC test dyeing of leaves (cell activity): remaining plants cultivated two days under fluorescent lamp at 4° C.
cucumber [9] = assay: Verification experiment 11: ultraviolet ray stress, TTC test; conditions: cut leaves irradiated with ultraviolet ray for 24 hours
autumn fern [10] = assay: Verification experiment 16: ammonia stress, Pteridophyta, TTC test; conditions: cut leaves immersed in 1.0% ammonia solution for 48 hours
autumn fern [11] = assay: Verification experiment 14: high temperature stress, Pteridophyta, TTC test; conditions: cut leaves immersed in tap water of 45° C. for 18 hours
Experimental: As a Pteridophyta, autumn fern was used, which is a representative Pteridophyta often found in, […] bright forest. Verification experiments for various stresses were conducted thereon. The experiments were conducted in the following procedures. […] Meanwhile, the leaf surfaces of the control sample were sprayed only with water. After the spraying onto the leaf surfaces, the autumn fern seedlings were cultivated at 25° C. for one day. The leaves were cut in a suitable size, and were then subjected to various stresses. Then, cell activities of the samples were determined by TTC test. The leaves that were cut in the suitable size were immersed in tap water of 45° C. for 18 hours. On such leaves, TTC test was conducted.

autumn fern [12] = assay: Verification experiment 15: organic acid stress, Pteridophyta, TTC test; conditions: cut leaves immersed in 0.4% acetic acid solution for three hours
[13] = cut leaves left two days in dark place at 0° C.
[14] = cut leaves left two days in dark place at −10° C.
[15] = leaf lettuce, summer greenhouse hydroponics

Row | SMILES | cells alive (TTC test) (cucumber [1]) | Weight of each seedling (cucumber [2]) | Average (cucumber [2]) [g] | Weight comparison (%) (cucumber [2]) | cells having an activity (TTC test) (cucumber [3]) | cells having an activity (TTC test) (cucumber [4]) | TTC test dyeing (cell activity) (racomitrium moss [5]) | TTC test dyeing (cell activity) (racomitrium moss [6]) | TTC test dyeing (cell activity) (racomitrium moss [7]) | effect as agent compared with zerumbone (Japanese mustard spinach) | TTC test dyeing (cell activity) (cucumber [8]; [13]) | TTC test dyeing (cell activity) (cucumber [8]; [14]) | TTC test dyeing of leaves (cell activity) (cucumber [8]) | cells having an activity (TTC test) (cucumber [9]) | TTC test dyeing (cell activity) (autumn fern [10]) | TTC test dyeing (cell activity) (autumn fern [11]) | TTC test dyeing (cell activity) (autumn fern [12]) | further results
1 | C/C1=C\CC/C(C)=C/CC(C)(C)/C=C/C1 [α-humulene] | most of the cells | 2.69 g and 2.99 g and 3.21 g and 3.07 g and 3.02 g and 2.76 g and 2.65 g and 3.03 g | 2.90 | 108.5 | a part of the cells | approximately half of the cells | dyed slightly | dyed slightly | dyed slightly | effects almost similar to that of zerumbone | dyed deeply | dyed slightly | dyed deeply except for their peripheries | approximately half of the cells | dyed slightly | dyed slightly | dyed slightly | Disease resistance: Powdery mildew (leaf lettuce; in vivo): Not occurred; Disease resistance: Root rot (leaf lettuce; in vivo): Not occurred; Physiological disorder (quality): Heterophyll (leaf lettuce; in vivo): Not occurred; Physiological disorder (quality): Root spread condition (leaf lettuce; in vivo): far better than in the sanguinarine test section; also recorded: Generally; Physiological disorder (quality): Taste (leaf lettuce; in vivo): No bitterness; Physiological disorder (quality): Tip burn (dead fringes of leaf) (leaf lettuce; in vivo): Not occurred; Physiological disorder (quality): Unproductive growth (leaf lettuce; in vivo): Not occurred; occurrence of a disease (overall) (leaf lettuce; in vivo): occurrence of a disease was not observed; physiological disorder (overall) (leaf lettuce; in vivo): no physiological disorder occurred
2 | C=C1CC/C=C(\C)CC[C@@H]2[C@@H]1CC2(C)C [β-caryophyllene] | most of the cells | 2.89 g and 3.15 g and 3.01 g and 3.13 g and 2.91 g and 3.53 g and 3.11 g and 3.02 g | 3.10 | 108.8 | a part of the cells | approximately half of the cells | dyed slightly | dyed slightly | dyed slightly | effects almost similar to that of zerumbone | dyed deeply | dyed slightly | dyed deeply except for their peripheries | approximately half of the cells | dyed slightly | dyed slightly | dyed slightly | Growing speed: Harvest timing (leaf lettuce; day on which harvest size reached 150 g to 180 g): 33rd day after day after germination; Disease resistance: Powdery mildew (leaf lettuce; [15]): Not occurred; Disease resistance: Root rot (leaf lettuce; [15]): Not occurred; Physiological disorder (quality): Heterophyll (leaf lettuce; [15]): Not occurred; Physiological disorder (quality): Root spread condition (leaf lettuce; [15]): far better than in the sanguinarine test section; also recorded: Very good; Physiological disorder (quality): Taste (leaf lettuce; [15]): No bitterness; Physiological disorder (quality): Tip burn (dead fringes of leaf) (leaf lettuce; [15]): Not occurred; Physiological disorder (quality): Unproductive growth (leaf lettuce; [15]): Not occurred; occurrence of a disease (overall) (leaf lettuce; [15]): occurrence of a disease was not observed; physiological disorder (overall) (leaf lettuce; [15]): no physiological disorder occurred
